molecular target: Cytochrome P450 2B4 (Oryctolagus cuniculus) (UniProt P00178); test: Binding affinity to C-terminal His4-tagged CYP2B4 dH/H226Y mutant (rabbit) after 2 hrs by isothermal titration calorimetric analysis

Row | Kd | SMILES
1 | 300 nM | Clc1ccc(-n2ccnc2)cc1
2 | 300 nM | c1ccc(COCCn2ccnc2)cc1

Further lines, the compound ahead of its results:

Row | SMILES | Kd
3 | Clc1ccc(-c2cnc[nH]2)cc1 | 300 nM
4 | c1ccc(-n2ccnc2)cc1 | 300 nM
5 | c1ccc(Cn2ccnc2)cc1 [BENZYLIMIDAZOLE] | 300 nM
